Values quoted from earlier work in PMC6426469 (Science Advances, 2019).

Legend:
APP/PS1 mice [1] = details: prolonged treatment for 30 days
APP/PS1 mice [2] = details: 1-week treatment
DG granule cells = details: previous study

SMILES | spatial memory impairments, Morris water maze (APP/PS1 mice [1]) | memory impairments, passive avoidance test (APP/PS1 mice [2]) | efficacy on spike probability (DG granule cells)
C#CCN(C)[C@H](C)Cc1ccccc1 [Selegiline, selegiline] | failed to significantly reverse spatial memory impairments | effective in rescuing memory impairments | –
C[C@H](NCc1ccc(OCc2cccc(F)c2)cc1)C(N)=O [safinamide] | – | – | showed prolonged efficacy
